Test results reported in PMC8659243, “Design, Synthesis and Tumour-Selective Toxicity of Novel 1-[3-{3,5-Bis(benzylidene)-4-oxo-1-piperidino}-3-oxopropyl]-4-piperidone Oximes and Related Quaternary Ammonium Salts” (Molecules, 2021).
Counter-ions that a name gives are not always drawn.

Key:
[1] = system: Ca9-22, HSC-2 and HSC-4 cells; assay: Average over Ca9-22, HSC-2 and HSC-4 neoplastic cells; format: cell-based, human; conditions: for CC50: Homo sapiens, average of Ca9-22, HSC-2 and HSC-4, read-out: Average CC50; for Average SI: average of SI for Ca9-22, HSC-2 and HSC-4
Method: In order to assess whether the compounds in series 3 and 4 are more toxic to neoplasms than non-malignant cells, selective index (SI) figures were calculated. In the in vivo situation, a tumour is surrounded by a number of non-malignant cells.
In order to identify the most promising lead compounds in terms of both cytotoxic potencies and favourable SI values, potency–selectivity expression (PSE) values were computed. […] Outstanding results may be noted for four compounds that have PSE values in excess of 100,000 namely 3d, 4c–e. […] However, the relative SI/PSE distribution patterns between series 3 and 4 (from a to h) are nearly superimposable with each other (Figure 3). […] It has been reported that 3,5-bis(3-iodo-5-methoxy-4-propoxybenzylidene)-N-acetylpiperidin-4-one inhibited tubulin and destabilization of microtubules, while 3,5-bis(3,4,5-trimethoxybenzylidene)-N-benzoylpiperidin-4-one destabilizes the microtubules. Thus, it remained to investigate whether compound 4d acts as an inhibitor of the microtubule.
(§1) A literature procedure was followed when the compounds in series 3 and 4 were evaluated against three human oral squamous cell carcinoma cell lines Ca9-22 (RCB-1976), HSC-2 (RCB1945), HSC-4 (RCB1902) (purchased from RIKEN Cell Bank, Tukuba, Japan) and three human normal oral cells, gingival fibroblast (HGF), periodontal ligament fibroblast (HPLF) and pulp cells (HPC) (established according to the guideline of the intramural ethic committee, A0808) except the duration of incubation was increased from 24 h to 48 h. In brief, various concentrations of the compounds were added to the DMEM media, which was supplemented by 10% heat-inactivated fetal bovine serum. Incubation was undertaken at 37 °C. At the completion of the experiment, cell viability was determined by the MTT method.

RPMI-8226 cells = assay: NCI in vitro screen, leukemia RPMI-8226; format: cell-based; conditions: Homo sapiens
Description: (§2) In view of the encouraging result with CEM leukemic cells, consideration was given to an assessment in the NCI in vitro screening program. The oximes, but not the quaternary ammonium salts, were accepted for bioevaluation. Examination of the mean graphs confirms the sensitivity of leukemic cells to these compounds.

HSC-2 cells = assay: Cytotoxicity against HSC-2 cells, MTT method, 48 h; format: cell-based, human; conditions: for CC50: Homo sapiens, HSC-2, concentration required to kill 50% of the cells, 48 h, MTT; for SI HSC-2: average CC50 towards HGF, HPLF, HPC divided by CC50 against HSC-2
Method: as §1

K-562 cells = assay: NCI in vitro screen, leukemia K-562; format: cell-based; conditions: Homo sapiens, K562
Description: as §2

All Cell Lines = assay: NCI in vitro screen, all cell lines; format: cell-based; conditions: Homo sapiens
Description: (§3) One particular reference drug is 5-fluorouracil, which is used in treating colon cancers.

Molt-4 cells = assay: NCI in vitro screen, leukemia Molt-4; format: cell-based; conditions: Homo sapiens
Description: as §2

HCC-2998 cells = assay: NCI in vitro screen, colon cancer HCC-2998; format: cell-based; conditions: Homo sapiens
Description: as §3

Ca9-22 cells = assay: Cytotoxicity against Ca9-22 cells, MTT method, 48 h; format: cell-based, human; conditions: for CC50: Homo sapiens, Ca9-22, concentration required to kill 50% of the cells, 48 h, MTT, read-out: CC50 Ca9-22; for SI Ca9-22: average CC50 towards HGF, HPLF, HPC divided by CC50 against Ca9-22
Method: as §1

[2] = Average over HGF, HPLF and HPC non-malignant cells; format: cell-based; conditions: human, HPLF and HPC non-malignant cells (average of the three)
Method: as §1

[3] = Cytotoxicity against non-malignant HPLF cells, MTT method, 48 h; format: cell-based; conditions: human, periodontal ligament fibroblasts (HPLF)
Method: as §1

Colo205 cells = assay: NCI in vitro screen, colon cancer Colo205; format: cell-based; conditions: Homo sapiens, COLO 205
Description: as §3

[4] = system: CEM T-lymphoblastic leukemia cells; assay: Cytotoxicity against CEM cells, MTT method, 24 h; format: cell-based; conditions: Homo sapiens, CCRF-CEM, concentration required to inhibit cell growth by 50%
Method: The method used for the evaluation of various compounds against human CEM cells has been reported previously. In brief, cells were grown in RPMI-1640 medium supplemented with 10% heat-inactivated fetal bovine serum. Different concentrations of compounds were added to the media, and after 24 h incubation, cytotoxicity was measured by the MTT method.

HT29 cells = assay: NCI in vitro screen, colon cancer HT29; format: cell-based; conditions: Homo sapiens, HT-29
Description: as §3

HL-60 (TB) cells = assay: NCI in vitro screen, leukemia HL-60 (TB); format: cell-based; conditions: Homo sapiens
Description: as §2

[5] = Cytotoxicity against non-malignant HPC cells, MTT method, 48 h; format: cell-based; conditions: human, pulp cells (HPC)
Method: as §1

leukemia cells = assay: NCI in vitro screen, average of leukemia cells; format: cell-based; conditions: Homo sapiens
Description: as §2

HSC-4 cells = assay: Cytotoxicity against HSC-4 cells, MTT method, 48 h; format: cell-based, human; conditions: for CC50: Homo sapiens, HSC-4, concentration required to kill 50% of the cells, 48 h, MTT, read-out: CC50 HSC-4; for SI HSC-4: average CC50 towards HGF, HPLF, HPC divided by CC50 against HSC-4
Method: as §1

KM12 cells = assay: NCI in vitro screen, colon cancer KM12; format: cell-based; conditions: Homo sapiens
Description: as §3

HCT-116 cells = assay: NCI in vitro screen, colon cancer HCT-116; format: cell-based; conditions: Homo sapiens
Description: as §3

SR cells = assay: NCI in vitro screen, leukemia SR; format: cell-based; conditions: Homo sapiens
Description: as §2

SW-620 cells = assay: NCI in vitro screen, colon cancer SW-620; format: cell-based; conditions: Homo sapiens
Description: as §3

HCT-15 cells = assay: NCI in vitro screen, colon cancer HCT-15; format: cell-based; conditions: Homo sapiens
Description: as §3

colon cancer cells = assay: NCI in vitro screen, average of colon cancer cells; format: cell-based; conditions: Homo sapiens
Description: as §3

[6] = Cytotoxicity against non-malignant HGF cells, MTT method, 48 h; format: cell-based; conditions: human, gingival fibroblasts (HGF)
Method: as §1

## Cc1ccc(/C=C2\CN(C(=O)CCN3CCC(=NO)CC3)C/C(=C\c3ccc(C)cc3)C2=O)cc1 [Compound 3f, (3~{E},5~{E})-3,5-bis[(4-methylphenyl)methylene]-1-[3-(4-hydroximino-1-piperidyl)propanoyl]piperidin-4-one hydrochloride]
[1]
  CC50: 0.55 µM
  Average SI: 13.9
RPMI-8226 cells
  IC50: 0.3 µM
HSC-2 cells
  CC50: 0.75 ± 0.04 µM
  SI HSC-2: 9.57
K-562 cells
  IC50: 0.32 µM
All Cell Lines
  IC50: 1.23 µM
Molt-4 cells
  IC50: 0.37 µM
HCC-2998 cells
  IC50: 1.58 µM
Ca9-22 cells
  CC50: 0.47 ± 0.04 µM
  SI Ca9-22: 15.3
[2]
  CC50 at 48 h: 7.18 µM
[3]
  CC50 at 48 h: 8 ± 0.2 µM
Colo205 cells
  IC50: 1.15 µM
[4]
  IC50: 8.42 ± 1.1 µM
HT29 cells
  IC50: 0.35 µM
HL-60 (TB) cells
  IC50: 1.7 µM
[5]
  CC50 at 48 h: 7.85 ± 7.1 µM
Leukemia cells
  IC50: 0.55 µM
HSC-4 cells
  CC50: 0.43 ± 0.12 µM
  SI HSC-4: 16.7
KM12 cells
  IC50: 0.28 µM
HCT-116 cells
  IC50: 0.36 µM
SR cells
  IC50: 0.31 µM
SW-620 cells
  IC50: 0.29 µM
HCT-15 cells
  IC50: 0.55 µM
Colon cancer cells
  IC50: 0.65 µM
[6]
  CC50 at 48 h: 5.7 ± 0.65 µM

## COc1ccc(/C=C2\CN(C(=O)CCN3CCC(=NO)CC3)C/C(=C\c3ccc(OC)cc3)C2=O)cc1 [Compound 3g, (3~{E},5~{E})-3,5-bis[(4-methoxyphenyl)methylene]-1-[3-(4-hydroximino-1-piperidyl)propanoyl]piperidin-4-one hydrochloride]
[1]
  CC50: 0.93 µM
  Average SI: 13.9
RPMI-8226 cells
  IC50: 0.65 µM
HSC-2 cells
  CC50: 1.56 ± 0.55 µM
  SI HSC-2: 6.92
K-562 cells
  IC50: 1.2 µM
All Cell Lines
  IC50: 1.28 µM
Molt-4 cells
  IC50: 2.95 µM
HCC-2998 cells
  IC50: 1.86 µM
Ca9-22 cells
  CC50: 0.59 ± 0.06 µM
  SI Ca9-22: 18.3
[2]
  CC50 at 48 h: 10.8 µM
[3]
  CC50 at 48 h: 12.1 ± 1.79 µM
Colo205 cells
  IC50: 2.04 µM
[4]
  IC50: 4.35 ± 0.2 µM
HT29 cells
  IC50: 2.04 µM
HL-60 (TB) cells
  IC50: 2.82 µM
[5]
  CC50 at 48 h: 13.6 ± 0.6 µM
Leukemia cells
  IC50: 1.88 µM
HSC-4 cells
  CC50: 0.65 ± 0.02 µM
  SI HSC-4: 16.6
KM12 cells
  IC50: 1.74 µM
HCT-116 cells
  IC50: 1.74 µM
SR cells
  IC50: 0.62 µM
SW-620 cells
  IC50: 1.38 µM
HCT-15 cells
  IC50: 2.14 µM
Colon cancer cells
  IC50: 1.84 µM
[6]
  CC50 at 48 h: 6.63 ± 0.06 µM

## O=C1/C(=C/c2ccc(Cl)cc2)CN(C(=O)CCN2CCC(=NO)CC2)C/C1=C\c1ccc(Cl)cc1 [Compound 3c, (3~{E},5~{E})-3,5-bis[(4-chlorophenyl)methylene]-1-[3-(4-hydroximino-1-piperidyl)propanoyl]piperidin-4-one hydrochloride]
[1]
  CC50: 0.32 µM
  Average SI: 69.5
RPMI-8226 cells
  IC50: 0.16 µM
HSC-2 cells
  CC50: 0.66 ± 0.14 µM
  SI HSC-2: 20.5
K-562 cells
  IC50: 0.16 µM
All Cell Lines
  IC50: 1.62 µM
Molt-4 cells
  IC50: 0.28 µM
HCC-2998 cells
  IC50: 0.31 µM
Ca9-22 cells
  CC50: 0.12 ± 0.08 µM
  SI Ca9-22: 113
[2]
  CC50 at 48 h: 13.5 µM
[3]
  CC50 at 48 h: 8.03 ± 0.06 µM
Colo205 cells
  IC50: 0.35 µM
[4]
  IC50: 15.9 ± 0.94 µM
HT29 cells
  IC50: 0.3 µM
HL-60 (TB) cells
  IC50: 0.56 µM
[5]
  CC50 at 48 h: 26.1 ± 35.9 µM
Leukemia cells
  IC50: 0.24 µM
HSC-4 cells
  CC50: 0.18 ± 0.03 µM
  SI HSC-4: 75.0
KM12 cells
  IC50: 0.22 µM
HCT-116 cells
  IC50: 0.21 µM
SR cells
  IC50: 0.04 µM
SW-620 cells
  IC50: 0.15 µM
HCT-15 cells
  IC50: 0.27 µM
Colon cancer cells
  IC50: 0.26 µM
[6]
  CC50 at 48 h: 6.4 ± 0.35 µM

## COc1cc(/C=C2\CN(C(=O)CCN3CCC(=NO)CC3)C/C(=C\c3cc(OC)c(OC)c(OC)c3)C2=O)cc(OC)c1OC [Compound 3h, (3~{E},5~{E})-1-[3-(4-hydroximino-1-piperidyl)propanoyl]-3,5-bis[(3,4,5-trimethoxyphenyl)methylene]piperidin-4-one]
[1]
  CC50: 0.2 µM
  Average SI: 22.5
RPMI-8226 cells
  IC50: 0.32 µM
HSC-2 cells
  CC50: 0.23 ± 0.02 µM
  SI HSC-2: 13.4
K-562 cells
  IC50: 0.32 µM
All Cell Lines
  IC50: 1.22 µM
Molt-4 cells
  IC50: 0.29 µM
HCC-2998 cells
  IC50: 0.21 µM
Ca9-22 cells
  CC50: 0.07 ± 0.03 µM
  SI Ca9-22: 43.9
[2]
  CC50 at 48 h: 3.07 µM
[3]
  CC50 at 48 h: 5.22 ± 0.69 µM
Colo205 cells
  IC50: 0.26 µM
[4]
  IC50: 2.31 ± 0.3 µM
HT29 cells
  IC50: 0.33 µM
HL-60 (TB) cells
  IC50: 0.27 µM
[5]
  CC50 at 48 h: 1.8 ± 0.6 µM
Leukemia cells
  IC50: 0.3 µM
HSC-4 cells
  CC50: 0.3 ± 0.15 µM
  SI HSC-4: 10.2
KM12 cells
  IC50: 0.2 µM
HCT-116 cells
  IC50: 0.21 µM
SR cells
  IC50: 0.3 µM
SW-620 cells
  IC50: 0.3 µM
HCT-15 cells
  IC50: 1.23 µM
Colon cancer cells
  IC50: 0.39 µM
[6]
  CC50 at 48 h: 2.18 ± 0.23 µM
